Laboratory results from the NIST ThermoML archive (doi:10.1021/je100554g).

What was measured:
[1] = 101.33 kPa, Liquid, Pulse-echo method
[2] = xn = mol fraction of the nth substance listed; conditions: 101 kPa, Liquid, Pulse-echo method

[Cl-].[Li+] [lithium chloride]
[1]
Conditions	speed of sound [m/s]
950 K	1988
976 K	1973
1003 K	1945
1030 K	1924
1062 K	1894
1082 K	1879
1110 K	1858
1148 K	1825
1181 K	1791

[Cl][Nd]([Cl])[Cl] [neodymium(III) chloride] + [Cl-].[K+]
[2]
Conditions	speed of sound [m/s]
1007 K, x1 = 0.75	1275
1037 K, x1 = 0.75	1259
1053 K, x1 = 0.37	1283
1058 K, x1 = 0.25	1370
1063 K, x1 = 0.5	1259
1067 K, x1 = 0.75	1240
1076 K, x1 = 0.25	1355
1080 K, x1 = 0.37	1260
1088 K, x1 = 0.5	1240
1096 K, x1 = 0.25	1340
1110 K, x1 = 0.37	1250
1110 K, x1 = 0.75	1225
1118 K, x1 = 0.25	1315
1124 K, x1 = 0.5	1230
1128 K, x1 = 0.37	1241
1139 K, x1 = 0.75	1210
1145 K, x1 = 0.37	1223
1146 K, x1 = 0.25	1300
1150 K, x1 = 0.5	1214
1163 K, x1 = 0.75	1197
1173 K, x1 = 0.37	1212
1176 K, x1 = 0.25	1256
1178 K, x1 = 0.37	1200
1185 K, x1 = 0.5	1190
1186 K, x1 = 0.25	1260
1203 K, x1 = 0.5	1186
1213 K, x1 = 0.25	1234

[Cl][Nd]([Cl])[Cl] [neodymium(III) chloride] + [Cl-].[Na+]
[2]
Conditions	speed of sound [m/s]
1009 K, x1 = 0.365	1450
1048 K, x1 = 0.365	1418
1053 K, x1 = 0.2	1520
1063 K, x1 = 0.75	1290
1073 K, x1 = 0.2	1502
1073 K, x1 = 0.75	1285
1074 K, x1 = 0.365	1389
1090 K, x1 = 0.44	1350
1100 K, x1 = 0.365	1368
1103 K, x1 = 0.2	1465
1103 K, x1 = 0.44	1340
1103 K, x1 = 0.75	1270
1115 K, x1 = 0.44	1325
1123 K, x1 = 0.44	1330
1127 K, x1 = 0.2	1476
1128 K, x1 = 0.365	1354
1133 K, x1 = 0.44	1325
1133 K, x1 = 0.75	1256
1143 K, x1 = 0.2	1447
1143 K, x1 = 0.44	1322
1150 K, x1 = 0.44	1307
1154 K, x1 = 0.75	1250
1155 K, x1 = 0.365	1357
1173 K, x1 = 0.2	1420
1175 K, x1 = 0.365	1340
1176 K, x1 = 0.75	1240

[Cl][Nd]([Cl])[Cl] [neodymium(III) chloride] + [Cl-].[Li+]
[2], x1 = 0.5
Conditions	speed of sound [m/s]
995 K	1395
1033 K	1374
1108 K	1350
1133 K	1331
1167 K	1326

[Cl][Nd]([Cl])[Cl] [neodymium(III) chloride]
[1]
Conditions	speed of sound [m/s]
1044 K	1248
1045 K	1259
1075 K	1237
1083 K	1227
1099 K	1227
1148 K	1223
1165 K	1212
1184 K	1188
1218 K	1190

[Cl][Nd]([Cl])[Cl] [neodymium(III) chloride] + [Cl-].[Cs+]
[2]
Conditions	speed of sound [m/s]
913 K, x1 = 0.45	1110
968 K, x1 = 0.45	1080
998 K, x1 = 0.8	1205
1008 K, x1 = 0.45	1053
1043 K, x1 = 0.8	1172
1061 K, x1 = 0.45	1026
1083 K, x1 = 0.8	1148
1112 K, x1 = 0.45	998
1123 K, x1 = 0.8	1129
1138 K, x1 = 0.45	980
1143 K, x1 = 0.8	1115
1147 K, x1 = 0.25	969
1169 K, x1 = 0.25	961
1188 K, x1 = 0.25	953
1207 K, x1 = 0.25	949
1226 K, x1 = 0.25	941
1245 K, x1 = 0.25	934
